Consider 20 compounds from US7868026B2, “Therapeutic compounds” (Pfizer Inc., priority 2005, dated 2011).

Where two headings read alike, the source gives them in different places. Where only a bound is given, the exact number is not on record here.

What all share (format): biochemical
Test [1] addresses T1, CYP3A4 (Homo sapiens, UniProt P08684). Briefly: Determination of IC50 against CYP3A4 by measurement of inhibition of midazolam metabolism (human liver microsomes, 1-hydroxymidazolam by LC-MS/MS). Also noted: 0.1 mg/mL human liver microsomes. The note with it: 2 μM midazolam, 0.1 mg/mL human liver microsomes. The method in brief: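 Human liver microsomes (0.1 mg/mL) incubated 8 min with 2 μM midazolam and 1 mM NADPH in 100 mM potassium phosphate, pH 7.4. 1-Hydroxymidazolam quantified by LC-MS/MS (MRM) as peak area ratio to internal standard against a metabolite standard curve.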
A general note: Liver microsomes are a subcellular fraction often used to study metabolism.

The target of test [2] is T1, CYP3A4. Briefly: Determination of compound Kiapp against recombinant CYP3A4 enzyme (BFC fluorescent substrate). The method in brief: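 Recombinant CYP3A4 (5.5 or 8 nM, with or without b5 depending on source) pre-incubated with inhibitor ≥30 min at room temperature in 100 mM sodium phosphate pH 7.0, 5 mM TCEP, 2% DMF. Reaction started with 200 uM NADPH and 5 uM BFC; initial fluorescence rates over 5 min fitted to Morrison tight-binding (non-partial) or Szedlacsek (partial) equations for Kiapp.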

For test [3], the target named is T1, CYP3A4. Briefly: Determination of IC50 against CYP3A4 by measurement of inhibition of testosterone metabolism (human liver microsomes, 6-β-OH-testosterone by LC-MS/MS). The note with it: read-out: IC50 (Testo.). Also noted: 0.1 mg/mL human liver microsomes. The method in brief:
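Human liver microsomes (0.1 mg/mL) incubated with 25 μM testosterone and 1 mM NADPH in 100 mM potassium phosphate, pH 7.4, for eight minutes. 6-β-OH-testosterone measured by LC-MS/MS in MRM mode against an internal standard and quantified from a metabolite standard curve.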

[4] abbreviates: Baculo. enzyme preparation, read-out: Kiapp (BFC, Baculo.).
Setting [5] is: Super. enzyme preparation, read-out: Kiapp (BFC, Super.).

T1 sequence (P08684 whole entry): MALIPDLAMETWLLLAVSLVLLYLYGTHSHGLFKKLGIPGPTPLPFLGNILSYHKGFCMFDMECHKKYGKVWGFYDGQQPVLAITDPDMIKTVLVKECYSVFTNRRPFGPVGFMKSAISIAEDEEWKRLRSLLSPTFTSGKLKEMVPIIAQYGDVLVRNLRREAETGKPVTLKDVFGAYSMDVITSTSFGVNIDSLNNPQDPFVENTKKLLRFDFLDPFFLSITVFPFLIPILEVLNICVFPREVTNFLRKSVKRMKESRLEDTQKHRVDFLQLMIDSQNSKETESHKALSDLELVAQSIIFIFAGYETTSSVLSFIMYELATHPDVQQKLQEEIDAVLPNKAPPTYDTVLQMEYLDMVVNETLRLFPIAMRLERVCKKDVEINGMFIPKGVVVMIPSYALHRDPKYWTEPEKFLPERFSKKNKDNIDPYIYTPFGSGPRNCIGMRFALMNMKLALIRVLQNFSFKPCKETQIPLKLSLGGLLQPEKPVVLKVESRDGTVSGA

With `COc1cncc(NS(=O)(=O)c2ccccc2C(=O)NCc2cccc(Cl)c2)c1` [Example 192, N-(3-chlorobenzyl)-2-{[(5-methoxypyridin-3-yl)amino]sulfonyl}benzamide], the IC50 in test [1] and in test [3] was 7 nM in each case. The Ki in test [2] (setting [4]) was found to be 23.7 nM; in test [2] (setting [5]) it was 2.7 nM.
With `CCC(CC)NC(=O)c1ccccc1S(=O)(=O)Nc1cncc(OC)c1` [Example 193, N-(1-ethylpropyl)-2-{[(5-methoxypyridin-3-yl)amino]sulfonyl}benzamide], the IC50 (as a rule, the midpoint of a concentration-inhibition curve) in test [1] amounted to 13 nM; in test [3], 27 nM. In addition, the Ki in test [2] (setting [4]) was 41.2 nM; in test [2] (setting [5]) it was 21.7 nM.
For `COC[C@@H]1[C@@H]2C[C@@H]3[C@H]1CN(C(=O)c1ccccc1S(=O)(=O)Nc1cncc(OC)c1)[C@@H]3C2` [Example 194, 2-{[(3R,3aR,5R,6aR,7R)-7-(methoxymethyl)hexahydro-3,5-methanocyclopenta[b]pyrrol-1(2H)-yl]carbonyl}-N-(5-methoxypyridin-3-yl)benzenesulfonamide] the same measures were 73 nM, 99 nM, 376 nM and 68.5 nM.
For `CCCN(CC)C(=O)c1ccccc1S(=O)(=O)Nc1cncc(OC)c1` [Example 195, N-ethyl-2-{[(5-methoxypyridin-3-yl)amino]sulfonyl}-N-propylbenzamide] the same measures were 15 nM, 32 nM, 70.8 nM and 35.6 nM.
The like results for `COc1cncc(NS(=O)(=O)c2ccccc2C(=O)N2CCOC(c3c(F)cccc3F)C2)c1` (centres unmarked) [Example 196, 2-{[2-(2,6-difluorophenyl)morpholin-4-yl]carbonyl}-N-(5-methoxypyridin-3-yl)benzenesulfonamide] were, in that order, 51 nM, 58 nM, 379 nM and 74.5 nM.
For `COc1cncc(NS(=O)(=O)c2ccccc2C(=O)NCCc2cc(F)ccc2F)c1` [Example 197, N-[2-(2,5-difluorophenyl)ethyl]-2-{[(5-methoxypyridin-3-yl)amino]sulfonyl}benzamide], the IC50 in test [1] came out at 4 nM; in test [3], 18 nM. The Ki in test [2] (setting [4]) was determined as 69.5 nM; in test [2] (setting [5]) it was 20.1 nM.
The like results for `COc1cncc(NS(=O)(=O)c2ccccc2C(=O)N(C)Cc2ccccc2F)c1` [Example 198, N-(2-fluorobenzyl)-2-{[(5-methoxypyridin-3-yl)amino]sulfonyl}-N-methylbenzamide] were, in that order, less than 3 nM, 10 nM, 41.7 nM and 16.6 nM.
For `COc1cncc(NS(=O)(=O)c2ccccc2C(=O)NC(CO)Cc2ccc(Cl)cc2)c1` (centres unmarked) [Example 199, N-[1-(4-chlorobenzyl)-2-hydroxyethyl]-2-{[(5-methoxypyridin-3-yl)amino]sulfonyl}benzamide] the same measures were 6 nM, 11 nM, 12.7 nM and 10.5 nM.
For `COc1cncc(NS(=O)(=O)c2ccccc2C(=O)NCC2CCCCC2)c1` [Example 200, N-(cyclohexylmethyl)-2-{[(5-methoxypyridin-3-yl)amino]sulfonyl}benzamide] the same measures were 12 nM, 21 nM, 36.1 nM and 9.9 nM.
Regarding `COc1cncc(NS(=O)(=O)c2ccccc2C(=O)NC2C3CC4CC(C3)CC2C4)c1` (centres unmarked) [Example 201, N-2-adamantyl-2-{[(5-methoxypyridin-3-yl)amino]sulfonyl}benzamide], the IC50 is 9 nM in test [1] and 16 nM in test [3]. Moreover, the results for the Ki in test [2] (setting [4]) and in test [2] (setting [5]) were 29.3 nM and 8 nM, respectively.
The like results for `COc1cncc(NS(=O)(=O)c2ccccc2C(=O)NC2CCCC(C)C2)c1` (centres unmarked) [Example 202, 2-{[(5-methoxypyridin-3-yl)amino]sulfonyl}-N-(3-methylcyclohexyl)benzamide] were, in that order, less than 3 nM, 7 nM, 84.2 nM and 33.4 nM.
For `COc1cncc(NS(=O)(=O)c2ccccc2C(=O)NCc2ccc(C#N)cc2Cl)c1` [Example 203, N-(2-chloro-4-cyanobenzyl)-2-{[(5-methoxypyridin-3-yl)amino]sulfonyl}benzamide] the same measures were 5 nM, 12 nM, 101 nM and 25.8 nM.
For `COc1cncc(NS(=O)(=O)c2ccccc2C(=O)NC(C)CC(C)C)c1` (centres unmarked) [Example 204, N-(1,3-dimethylbutyl)-2-{[(5-methoxypyridin-3-yl)amino]sulfonyl}benzamide] the same measures were less than 3 nM, 12 nM, 52.5 nM and 12.6 nM.
For `CCC(C)NC(=O)c1ccccc1S(=O)(=O)Nc1cncc(OC)c1` (centres unmarked) [Example 205, N-(sec-butyl)-2-{[(5-methoxypyridin-3-yl)amino]sulfonyl}benzamide], the results for the IC50 in test [1] and in test [3] were less than 15.5 nM and 27 nM, respectively. Further, the Ki is 206 nM in test [2] (setting [4]) and 41.9 nM in test [2] (setting [5]).
For `COc1cncc(NS(=O)(=O)c2ccccc2C(=O)NCc2cccc(Cl)c2C)c1` [Example 206, N-(3-chloro-2-methylbenzyl)-2-{[(5-methoxypyridin-3-yl)amino]sulfonyl}benzamide] the same measures were less than 3 nM, 6 nM, 3.6 nM and 2.9 nM.
For `COc1cncc(NS(=O)(=O)c2ccccc2C(=O)NCc2c(F)cccc2F)c1` [Example 207, N-(2,6-difluorobenzyl)-2-{[(5-methoxypyridin-3-yl)amino]sulfonyl}benzamide] the same measures were 5 nM, 24 nM, 105 nM and 19.1 nM.
For `CCC(C)CNC(=O)c1ccccc1S(=O)(=O)Nc1cncc(OC)c1` (centres unmarked) [Example 208, 2-{[(5-methoxypyridin-3-yl)amino]sulfonyl}-N-(2-methylbutyl)benzamide] the same measures were 9.5 nM, 19 nM, 57.3 nM and 16.1 nM.
On to `COc1cncc(NS(=O)(=O)c2ccccc2C(=O)NCCC2CCCC2)c1` [Example 209, N-(2-cyclopentylethyl)-2-{[(5-methoxypyridin-3-yl)amino]sulfonyl}benzamide], for which the values for the IC50 in test [1] and in test [3] were 4 nM and 5 nM, respectively. Further, the values for the Ki in test [2] (setting [4]) and in test [2] (setting [5]) were 18.2 nM and 6.1 nM, respectively.
The like results for `COc1cncc(NS(=O)(=O)c2ccccc2C(=O)N[C@@H](C)C(C)(C)C)c1` [Example 210, 2-{[(5-methoxypyridin-3-yl)amino]sulfonyl}-N-[(1S)-122-trimethylpropyl]benzamide] were, in that order, 10 nM, 49 nM, 286 nM and 39.6 nM.
Turning to `COc1cncc(NS(=O)(=O)c2ccccc2C(=O)NC(C(C)C)C(C)C)c1` [Example 211, N-(1-isopropyl-2-methylpropyl)-2-{[(5-methoxypyridin-3-yl)amino]sulfonyl}benzamide], the IC50 in test [1] was 4 nM; in test [3], 19 nM. The Ki in test [2] (setting [4]) is 33.6 nM; in test [2] (setting [5]) it was 7.9 nM.
